Test results: patent publication US7390625B2, “Apoptosis-associated protein and use thereof” (Takeda Pharmaceutical Company Limited, priority 2002, dated 2008)
Peptide text beside a SMILES is read from it. * marks the point of attachment. Cbz = O=C(OCc1ccccc1)*; CH2F = FC*

Tested on: PAE-ABP1 cells
Assay: Cell death assay in PAE-ABP1 cells after removal of tetracycline
Format: cell-based, porcine
Conditions: 50 μM, 18 hours after tetracycline removal
Protocol: FIGS. 7A-B show the induction of cell death by ABP1 in PAE-ABP1 cells. FIG. 7A: Phase contrast photomicrographs at 36 hours after cultivation of PAE-ABP1 cells in the presence (+) and absence (−) of tetracycline (Tet) are shown. FIG. 7B: The ratio (%) of cell death from cultivation in the presence of tetracycline (O hour) and at 24 hours and 48 hours after removal of tetracycline.
FIGS. 9A-B show the caspase dependency of cell death by ABP1. FIG. 9A: PAE-ABP1 cells were cultivated in the absence of tetracycline, and caspase-3 activity was measured after 0, 12, 24, and 36 hours. The results are shown as relative values with the value in the presence of tetracycline taken as 1. FIG. 9B: PAE-ABP1 cells were treated with zVAD-fmk (50 μM) simultaneously with removal of tetracycline, and the ratio (%) of dead cells was quantified. Cell death assay was conducted at 18 hours after removal of tetracycline. […]
When these cells were cultured in the absence of tetracycline, cell death was induced with the expression of the ABP1 protein, as in the transient expression of the ABP1 protein in HeLa cells (FIG. 7A). The ratio of dead cells to all cells (the ratio of cells showing a morphological sign of cell death to all cells was determined under a microscope; the results were shown as the mean for three visual fields) was determined to be about 55% at 48 hours after removal of tetracycline (FIG. 7B).

SMILES: COC(=O)C[C@H](NC(=O)[C@H](C)NC(=O)[C@@H](NC(=O)OCc1ccccc1)C(C)C)C(=O)CF [zVAD-fmk, reference compound] (Cbz-Val-Ala-Asp(OMe)-CH2F)
- suppression of cell death caused by ABP1: almost completely suppressed
